Source: patent US20240383886A1, “Protein Tyrosine Phosphatase Degraders and Methods of Use Thereof” (CALICO LIFE SCIENCES LLC, priority 2019, published 2024)

Columns and labels:
PTPN2 [1] = assay: HiBiT-Degradation B16F10.4 PTPN2; type: cell-based; conditions: B16F10.4 cells, 24.0 hours
PTPN2 [2] = molecular target: T1, PTPN2 (Homo sapiens, UniProt P17706); assay: HiBiT-Degradation 293T.109 PTPN2 (Nano-Glo HiBiT Lytic Assay); type: cell-based; conditions: 293T.109 (HiBiT-PTPN2) cells, 24.0 hours
T1 construct: expressed in transfected cells; host or cells: 293T (293T.109 HiBiT-PTPN2 line; parental 293T WT from ATCC)
T1 sequence (P17706 1-415): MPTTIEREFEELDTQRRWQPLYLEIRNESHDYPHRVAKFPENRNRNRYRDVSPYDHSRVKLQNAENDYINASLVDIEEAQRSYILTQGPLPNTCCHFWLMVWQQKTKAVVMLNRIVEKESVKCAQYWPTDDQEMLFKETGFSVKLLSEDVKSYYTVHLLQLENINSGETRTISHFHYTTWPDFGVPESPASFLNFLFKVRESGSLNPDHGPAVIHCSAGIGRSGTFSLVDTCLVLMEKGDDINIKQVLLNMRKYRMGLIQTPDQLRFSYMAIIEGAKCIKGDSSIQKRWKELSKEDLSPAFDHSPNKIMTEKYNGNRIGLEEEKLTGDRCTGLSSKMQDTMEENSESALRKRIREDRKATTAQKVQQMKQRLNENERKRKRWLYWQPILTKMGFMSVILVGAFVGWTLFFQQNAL
Text: Dulbecco's modified Eagle medium (DMEM) without phenol red and fetal bovine serum (FBS) were purchased from Gibco (Grand Island, NY, USA). Nano-Glo® HiBIT Lytic Assay System was purchased from Promega (Madison, WI, USA). 293T.109 (HiBiT-PTPN2) cell line was generated by ectopically expressing PTPN2 with N-terminal HiBiT fusion tag in 293T WT cell line purchased from ATCC (Manassas, VA, USA). Cell culture flasks and 384-well microplates were acquired from VWR (Radnor, PA, USA).
PTPN2 degradation was determined based on quantification of luminescent signal using Nano-Glo® HiBIT Lytic Assay kit. Test compounds were added to the 384-well plate from a top concentration of 10 μM with 11 points, half log titration in duplicates. 293T.109 cells were added into 384-well plates at a cell density of 5000 cells per well. The plates were kept at 37° C. with 5% CO2 for 24 hours. The cells treated in the absence of the test compound were the negative control and the cells without Nano-Glo® HiBiT Lytic reagent were the positive control. After 24-hour incubation, Nano-Glo® HiBIT Lytic Assay reagents were added to the cells. Luminescence was acquired on EnVision™ Multilabel Reader (PerkinElmer, Santa Clara, CA, USA).

## Cn1nc([C@@H]2CCC(=O)NC2=O)c2ccc(N3CCC(CC(=O)Nc4ccc5c(F)c(N6CC(=O)NS6(=O)=O)c(O)cc5c4)CC3)cc21 [Example 163, 2-[1-[3-[(3S)-2,6-dioxo-3-piperidyl]-1-methyl-indazol-6-yl]-4-piperidyl]-N-[5-fluoro-7-hydroxy-6-(1,1,4-trioxo-1,2,5-thiadiazolidin-2-yl)-2-naphthyl]acetamide]
PTPN2 [1]
  DC50: 10 to 50 nM
PTPN2 [2]
  DC50: 10 to 50 nM

## Cn1c(=O)n(C2CCC(=O)NC2=O)c2ccc(NC3CCN(CCNc4ccc5c(F)c(N6CC(=O)NS6(=O)=O)c(O)cc5c4)CC3)cc21 (stereo not shown) [Example 53]
PTPN2 [1]
  DC50: ≥ 1000 nM
PTPN2 [2]
  DC50: 200 to 1000 nM

## O=C1CCC(Nc2ccc(C3CCN(CC(=O)Nc4ccc5c(F)c(N6CC(=O)NS6(=O)=O)c(O)cc5c4)CC3(F)F)cc2)C(=O)N1 (stereo not shown) [Example 113, 2-[4-[4-[(2,6-dioxo-3-piperidyl)amino]phenyl]-3,3-difluoro-1-piperidyl]-N-[5-fluoro-7-hydroxy-6-(1,1,4-trioxo-1,2,5-thiadiazolidin-2-yl)-2-naphthyl]acetamide]
PTPN2 [1]
  DC50: 200 to 1000 nM
PTPN2 [2]
  DC50: 200 to 1000 nM

## O=C(CCOCCNC(=O)CNc1cccc2c1CN(C1CCC(=O)NC1=O)C2=O)NCCOc1ccc2cc(O)c(N3CC(=O)NS3(=O)=O)c(F)c2c1 (stereo not shown) [Example 45]
PTPN2 [1]
  DC50: ≥ 1000 nM
PTPN2 [2]
  DC50: 200 to 1000 nM

## Cn1c(=O)n(C2CCC(=O)NC2=O)c2ccc(-c3ccc(CNCC(C)(C)CCOc4ccc5cc(O)c(N6CC(=O)NS6(=O)=O)c(F)c5c4)cc3)cc21 (stereo not shown) [Example 153, 3-[5-[4-[[[4-[[8-fluoro-6-hydroxy-7-(1,1,4-trioxo-1,2,5-thiadiazolidin-2-yl)-2-naphthyl]oxy]-2,2-dimethyl-butyl]amino]methyl]phenyl]-3-methyl-2-oxo-benzimidazol-1-yl]piperidine-2,6-dione]
PTPN2 [1]
  DC50: 200 to 1000 nM
PTPN2 [2]
  DC50: 50 to 200 nM

## Cn1c(=O)n(C2CCC(=O)NC2=O)c2ccc(N3CCC(OCC(=O)Nc4ccc5c(F)c(N6CC(=O)NS6(=O)=O)c(O)cc5c4)CC3)cc21 (stereo not shown) [Example 84, 2-[[1-[1-(2,6-dioxo-3-piperidyl)-3-methyl-2-oxo-benzimidazol-5-yl]-4-piperidyl]oxy]-N-[5-fluoro-7-hydroxy-6-(1,1,4-trioxo-1,2,5-thiadiazolidin-2-yl)-2-naphthyl]acetamide]
PTPN2 [1]
  DC50: 50 to 200 nM
PTPN2 [2]
  DC50: 10 to 50 nM

## CC(Nc1cccc2c1C(=O)N(C1CCC(=O)NC1=O)C2=O)c1cn(CCC(=O)Nc2ccc3c(F)c(N4CC(=O)NS4(=O)=O)c(O)cc3c2)nn1 (stereo not shown) [Example 66]
PTPN2 [1]
  DC50: ≥ 1000 nM
PTPN2 [2]
  DC50: 200 to 1000 nM

## O=C1CCC(N2Cc3c(OCc4cnn(CCC(=O)Nc5ccc6c(F)c(N7CC(=O)NS7(=O)=O)c(O)cc6c5)c4)cccc3C2=O)C(=O)N1 (stereo not shown) [Example 21, N-(6-(1,1-dioxido-4-oxo-1,2,5-thiadiazolidin-2-yl)-5-fluoro-7-hydroxynaphthalen-2-yl)-3-(4-(((2-(2,6-dioxopiperidin-3-yl)-1-oxoisoindolin-4-yl)oxy)methyl)-1H-pyrazol-1-yl)propanamide]
PTPN2 [1]
  DC50: 200 to 1000 nM
PTPN2 [2]
  DC50: 50 to 200 nM

## Cn1nc(C2CCC(=O)NC2=O)c2ccc([C@H]3CC[C@@H](CC(=O)Nc4ccc5c(F)c(N6CC(=O)NS6(=O)=O)c(O)cc5c4)CC3)cc21 (stereo partly drawn) [Example 180, N-(6-(1,1-dioxido-4-oxo-1,2,5-thiadiazolidin-2-yl)-5-fluoro-7-hydroxynaphthalen-2-yl)-2-((cis)-4-(3-(2,6-dioxopiperidin-3-yl)-1-methyl-1H-indazol-6-yl)cyclohexyl)acetamide]
PTPN2 [1]
  DC50: 50 to 200 nM
PTPN2 [2]
  DC50: 10 to 50 nM

## Cn1c(=O)n(C2CCC(=O)NC2=O)c2ccc([C@H]3CC[C@@H](CC(=O)Nc4ccc5c(F)c(N6CC(=O)NS6(=O)=O)c(O)cc5c4)CC3)cc21 (single isomer, unassigned) [Example 81a, N-(6-(1,1-dioxido-4-oxo-1,2,5-thiadiazolidin-2-yl)-5-fluoro-7-hydroxynaphthalen-2-yl)-2-((1s,4s)-4-(1-(2,6-dioxopiperidin-3-yl)-3-methyl-2-oxo-2,3-dihydro-1H-benzo[d]imidazol-5-yl)cyclohexyl)acetamide]
PTPN2 [1]
  DC50: 10 to 50 nM
PTPN2 [2]
  DC50: 10 to 50 nM

## Cn1c(=O)n(C2CCC(=O)NC2=O)c2ccc(C3CCN(C4CC(C(=O)Nc5ccc6c(F)c(N7CC(=O)NS7(=O)=O)c(O)cc6c5)C4)CC3)cc21 (stereo not shown) [Example 86, 3-[4-[1-(2,6-dioxo-3-piperidyl)-3-methyl-2-oxo-benzimidazol-5-yl]-1-piperidyl]-N-[5-fluoro-7-hydroxy-6-(1,1,4-trioxo-1,2,5-thiadiazolidin-2-yl)-2-naphthyl]cyclobutanecarboxamide]
PTPN2 [1]
  DC50: 50 to 200 nM
PTPN2 [2]
  DC50: 10 to 50 nM

## Cn1c(=O)n(C2CCC(=O)NC2=O)c2ccc(C3CCN(CC(=O)N4CCC(c5ccc6cc(O)c(N7CC(=O)NS7(=O)=O)c(F)c6c5)CC4)CC3)cc21 (stereo not shown) [Example 120, 3-[5-[1-[2-[4-[8-fluoro-6-hydroxy-7-(1,1,4-trioxo-1,2,5-thiadiazolidin-2-yl)-2-naphthyl]-1-piperidyl]-2-oxo-ethyl]-4-piperidyl]-3-methyl-2-oxo-benzimidazol-1-yl]piperidine-2,6-dione]
PTPN2 [1]
  DC50: 50 to 200 nM
PTPN2 [2]
  DC50: 10 to 50 nM

## CN(CCOc1ccc2cc(O)c(N3CC(=O)NS3(=O)=O)c(F)c2c1)C(=O)CN1CCC(c2ccc3c(c2)n(C)c(=O)n3C2CCC(=O)NC2=O)CC1 (stereo not shown) [Example 97, 2-[4-[1-(2,6-dioxo-3-piperidyl)-3-methyl-2-oxo-benzimidazol-5-yl]-1-piperidyl]-N-[2-[[8-fluoro-6-hydroxy-7-(1,1,4-trioxo-1,2,5-thiadiazolidin-2-yl)-2-naphthyl]oxy]ethyl]-N-methyl-acetamide]
PTPN2 [1]
  DC50: 200 to 1000 nM
PTPN2 [2]
  DC50: 50 to 200 nM

## Cn1c(=O)n(C2CCC(=O)NC2=O)c2ccc(C3CCN(CCCn4cc(-c5ccc6cc(O)c(N7CC(=O)NS7(=O)=O)c(F)c6c5)cn4)CC3)cc21 (stereo not shown) [Example 91, 3-[5-[1-[3-[4-[8-fluoro-6-hydroxy-7-(1,1,4-trioxo-1,2,5-thiadiazolidin-2-yl)-2-naphthyl]pyrazol-1-yl]propyl]-4-piperidyl]-3-methyl-2-oxo-benzimidazol-1-yl]piperidine-2,6-dione]
PTPN2 [1]
  DC50: 50 to 200 nM
PTPN2 [2]
  DC50: 10 to 50 nM

## O=C(CN1CCC(c2ccc3c(c2)oc(=O)n3C2CCC(=O)NC2=O)CC1)NCCOc1ccc2cc(O)c(N3CC(=O)NS3(=O)=O)c(F)c2c1 (stereo not shown) [Example 5, 2-[4-[3-(2,6-dioxo-3-piperidyl)-2-oxo-1,3-benzoxazol-6-yl]-1-piperidyl]-N-[2-[[8-fluoro-6-hydroxy-7-(1,1,4-trioxo-1,2,5-thiadiazolidin-2-yl)-2-naphthyl]oxy]ethyl]acetamide]
PTPN2 [1]
  DC50: ≥ 1000 nM
PTPN2 [2]
  DC50: 50 to 200 nM

## Cn1c(=O)n(C2CCC(=O)NC2=O)c2cccc(C3CCN(CC(=O)NCCOc4ccc5cc(O)c(N6CC(=O)NS6(=O)=O)c(F)c5c4)CC3)c21 (stereo not shown) [Example 33]
PTPN2 [1]
  DC50: ≥ 1000 nM
PTPN2 [2]
  DC50: 200 to 1000 nM

## O=C1CCC(Nc2ccc(C3CCN(CC(=O)Nc4ccc5c(F)c(N6CC(=O)NS6(=O)=O)c(O)cc5c4)CC3)cc2Oc2ccccc2)C(=O)N1 (stereo not shown) [Example 101, 2-[4-[4-[(2,6-dioxo-3-piperidyl)amino]-3-phenoxy-phenyl]-1-piperidyl]-N-[5-fluoro-7-hydroxy-6-(1,1,4-trioxo-1,2,5-thiadiazolidin-2-yl)-2-naphthyl]acetamide]
PTPN2 [1]
  DC50: ≥ 1000 nM
PTPN2 [2]
  DC50: 200 to 1000 nM

## Cn1c(=O)n(C2CCC(=O)NC2=O)c2ccc(C3CCN(CC(=O)N4CCC[C@@H](COc5ccc6cc(O)c(N7CC(=O)NS7(=O)=O)c(F)c6c5)C4)CC3)cc21 (stereo partly drawn) [Example 130, 3-[5-[1-[2-[(3R)-3-[[8-fluoro-6-hydroxy-7-(1,1,4-trioxo-1,2,5-thiadiazolidin-2-yl)-2-naphthyl]oxymethyl]-1-piperidyl]-2-oxo-ethyl]-4-piperidyl]-3-methyl-2-oxo-benzimidazol-1-yl]piperidine-2,6-dione]
PTPN2 [1]
  DC50: 50 to 200 nM
PTPN2 [2]
  DC50: 50 to 200 nM

## O=C(CN1CCC(c2ccc(NC3CCC(=O)NC3=O)c(Oc3ccccc3)c2)CC1)NCCOc1ccc2cc(O)c(N3CC(=O)NS3(=O)=O)c(F)c2c1 (stereo not shown) [Example 96, 2-[4-[4-[(2,6-dioxo-3-piperidyl)amino]-3-phenoxy-phenyl]-1-piperidyl]-N-[2-[[8-fluoro-6-hydroxy-7-(1,1,4-trioxo-1,2,5-thiadiazolidin-2-yl)-2-naphthyl]oxy]ethyl]acetamide]
PTPN2 [1]
  DC50: 50 to 200 nM
PTPN2 [2]
  DC50: 50 to 200 nM

## Cn1c(=O)n(C2CCC(=O)NC2=O)c2ccc(C3CCN(CCN4CCC(c5ccc6cc(O)c(N7CC(=O)NS7(=O)=O)c(F)c6c5)CC4)CC3)cc21 (stereo not shown) [Example 123, 3-[5-[1-[2-[4-[8-fluoro-6-hydroxy-7-(1,1,4-trioxo-1,2,5-thiadiazolidin-2-yl)-2-naphthyl]-1-piperidyl]ethyl]-4-piperidyl]-3-methyl-2-oxo-benzimidazol-1-yl]piperidine-2,6-dione]
PTPN2 [1]
  DC50: 50 to 200 nM
PTPN2 [2]
  DC50: 10 to 50 nM
